Like-named read-outs stand apart in the source and are kept apart here.
What was measured:
HRP = molecular target: T1, HRP (Armoracia rusticana, UniProt P00433); experiment: Amplex Red H2O2 assay (HRP-dependent); assay type: biochemical, horseradish; settings: Fig. 1b; read-out: EC50, dose-response in Amplex Red assay
T1 sequence (P00433 31-353): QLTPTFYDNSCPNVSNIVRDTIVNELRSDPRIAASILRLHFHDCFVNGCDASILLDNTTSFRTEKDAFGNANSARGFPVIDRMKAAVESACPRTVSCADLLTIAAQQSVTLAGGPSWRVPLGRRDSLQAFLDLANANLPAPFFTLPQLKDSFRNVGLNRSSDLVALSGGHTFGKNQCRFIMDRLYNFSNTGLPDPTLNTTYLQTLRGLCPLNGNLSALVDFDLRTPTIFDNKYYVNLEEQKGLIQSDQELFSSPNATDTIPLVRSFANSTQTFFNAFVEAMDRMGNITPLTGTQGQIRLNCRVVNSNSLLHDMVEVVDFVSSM
Protocol: Hb (Sigma‒Aldrich, H7379), H2O2 (Sigma‒Aldrich, H1009), and Amplex Red reagents (Invitrogen, A12222) were obtained for the study. A 4 μM H2O2 solution was prepared in 50 mM sodium phosphate buffer (pH 7.2). Then, 49 μl of this mixture was mixed with 1 μl of the test compound in DMSO or distilled water. The mixture was combined with an assay mixture of Amplex Red reagent (20 mM stock to 0.1 mM) and HRP (200 U/ml stock to 0.2 U/ml) and added to the wells at 50 μl/well. After a 60-min incubation at 37 °C, resorufin production was quantified via a microplate fluorescence reader (SpectraMax iD5, Molecular Devices) at ex/em = 535/580 nm. The H2O2-decomposing activity was estimated via the following equation: (sample fluorescence-blank fluorescence)/(control […]-blank fluorescence) × 100. For the ROS-Glo assay, the H2O2 substrate solution and ROS-Glo detection solution were prepared according to the manufacturer’s instructions. 10 μM H2O2 and drugs were prepared as in the Amplex Red assay, with HRP, Hb, CAT, or GPx added as needed. […] Luminescence was measured via iD5 microplate readers. The H2O2-decomposing activity was estimated via the following equation: (sample luminescence-blank luminescence)/(control luminescence-blank luminescence) × 100. The U/ml was calculated on the basis of the amount of H2O2 reduced by Hb during the reaction, using μg/ml and U/mg.

[1] = In vivo pharmacokinetics (IV, PO); settings: male, ICR, mouse, plasma, mice
Protocol: In vivo pharmacokinetic studies of KDS12025 were conducted by Medicilon (Shanghai, China). For both intravenous (IV) and oral (PO) administration, the compound was dissolved in a vehicle consisting of 10% Solutol and 90% distilled water. Male ICR mice (n = 4 per group) were fasted overnight and allowed access to food 4 h post-dosing, with water provided ad libitum. Following administration, blood samples (0.03 mL per time point) were collected via the submandibular vein. Samples were transferred to tubes containing sodium heparin and centrifuged at 6,800 x g for 6 min at 2–8 °C. Plasma was separated, transferred to Eppendorf tubes, and internal standard (IS: 10 ng/mL verapamil) was added. After vortexing for 1 min and centrifugation at 18,000 x g for 7 min, the supernatant was analyzed by liquid chromatography–tandem mass spectrometry (LC-MS/MS; TQ5500 Triple Quad, SCIEX). Pharmacokinetic parameters including area under the curve (AUC0–t and AUC0–∞), elimination half-life (t1/2), maximum plasma concentration (Cmax), and time to reach maximum concentration (Tmax) were calculated using noncompartmental analysis in Phoenix WinNonlin 7.0 (Pharsight, USA), an FDA-certified pharmacokinetic software.

C57BL/6J mice = experiment: PhenoMaster respiration and metabolic analysis; assay type: in vivo, mouse; parameters: energy expenditure (Fig. S8b) / total food consumption (Fig. S8c) / total drink consumption (Fig. S8d) / oxygen consumption (stats entry 2j): unit not given here
Protocol: For respiration and metabolic analysis, PhenoMaster (TSE Systems, Germany) was employed. All C57BL/6J mice aged 8–10 weeks underwent initial chamber habituation and gas calibration on day 0. Starting on day 3, the mice were administered KDS12025 dissolved in water at dosages of 0.1, 1, and 10 mg/kg/day (ad libitum drinking water). Respiratory and metabolic measurements, including oxygen consumption, carbon dioxide production, and the respiratory exchange ratio (RER, calculated as VCO2/VO2), as well as food and drink intake and energy expenditure, were conducted from day 4. The recording ends on day 8 with data collection.

## O=C(O)c1cc(NCCc2ccc(C(F)(F)F)cc2)ccc1O [HTPEB, 2-hydroxy-5-[2-(4-trifluoromethyl-phenyl)-ethylamino]-benzoic acid, reference compound]
HRP
  EC50: 1.8 µM

## CNc1ccc(NCCc2ccccc2OC)cc1.Cl [KDS12025, N^1-(2-methoxyphenethyl)-N^4-methylbenzene-1,4-diamine hydrochloride salt]
[1]; 5 mg/kg IV and 30 mg/kg PO, read-out: F (bioavailability)
  bioavailability: 87.4%
[1]; 5 mg/kg IV, read-out: AUCall, IV
  AUC: 687 ± 118 ng·h/mL
[1]; 5 mg/kg IV, read-out: t1/2, IV (converted)
  half-life: 57.6 ± 5.4 min
[1]; 30 mg/kg PO, read-out: AUCall, PO
  AUC: 3600 ± 662 ng·h/mL
[1]; cell spans IV and PO heads, probably 30 mg/kg PO
  Cmax: 2310 ± 344 ng/mL
C57BL/6J mice; 0.1mpk, dark
  carbon dioxide production (stats entry 2k): 3345
  energy expenditure (Fig. S8b): 22.37±1.215
  oxygen consumption (stats entry 2j): 4228
  respiratory exchange ratio (stats entry 2l): 0.849
  total drink consumption (Fig. S8d): 0.1272±0.009
  total food consumption (Fig. S8c): 0.1543±0.018
C57BL/6J mice; 0.1mpk, full day
  carbon dioxide production (stats entry 2k): 3292
  energy expenditure (Fig. S8b): 22.21±1.751
  oxygen consumption (stats entry 2j): 4161
  respiratory exchange ratio (stats entry 2l): 0.857
  total drink consumption (Fig. S8d): 0.108±0.005
  total food consumption (Fig. S8c): 0.126±0.0123
C57BL/6J mice; 0.1mpk, light
  carbon dioxide production (stats entry 2k): 3065
  oxygen consumption (stats entry 2j): 3923
  respiratory exchange ratio (stats entry 2l): 0.833
C57BL/6J mice; 1mpk, dark
  carbon dioxide production (stats entry 2k): 3167
  energy expenditure (Fig. S8b): 21.29±0.7258
  oxygen consumption (stats entry 2j): 4063
  respiratory exchange ratio (stats entry 2l): 0.891
  total drink consumption (Fig. S8d): 0.1220±0.0208
  total food consumption (Fig. S8c): 0.1761±0.0164
C57BL/6J mice; 1mpk, full day
  carbon dioxide production (stats entry 2k): 3075
  energy expenditure (Fig. S8b): 21.26±0.07088
  oxygen consumption (stats entry 2j): 3871
  respiratory exchange ratio (stats entry 2l): 0.883
  total drink consumption (Fig. S8d): 0.0902±0.0248
  total food consumption (Fig. S8c): 0.166±0.03508
C57BL/6J mice; 1mpk, light
  carbon dioxide production (stats entry 2k): 2916
  energy expenditure (Fig. S8b): 19.95±0.3562
  oxygen consumption (stats entry 2j): 3584
  respiratory exchange ratio (stats entry 2l): 0.860
  total drink consumption (Fig. S8d): 0.0790±0.0149
  total food consumption (Fig. S8c): 0.1032±0.009
C57BL/6J mice; 10mpk, dark
  carbon dioxide production (stats entry 2k): 3344
  energy expenditure (Fig. S8b): 20.73±0.9735
  oxygen consumption (stats entry 2j): 4216
  respiratory exchange ratio (stats entry 2l): 0.877
  total drink consumption (Fig. S8d): 0.1041±0.0394
  total food consumption (Fig. S8c): 0.1572±0.01881
C57BL/6J mice; 10mpk, full day
  carbon dioxide production (stats entry 2k): 3120
  energy expenditure (Fig. S8b): 19.14±0.6082
  oxygen consumption (stats entry 2j): 3593
  respiratory exchange ratio (stats entry 2l): 0.857
  total drink consumption (Fig. S8d): 0.0776±0.01206
  total food consumption (Fig. S8c): 0.1288±0.0108
C57BL/6J mice; 10mpk, light
  carbon dioxide production (stats entry 2k): 2900
  energy expenditure (Fig. S8b): 18.91±1.057
  oxygen consumption (stats entry 2j): 3753
  respiratory exchange ratio (stats entry 2l): 0.831
  total drink consumption (Fig. S8d): 0.05856±0.0075
  total food consumption (Fig. S8c): 0.09464±0.0095
